Experimental data from PMC9921564, “Novel Indole-Containing Hybrids Derived from Millepachine: Synthesis, Biological Evaluation and Antitumor Mechanism Study” (Molecules, 2023).

Tests used:
[1] = test system: MCF-10A (normal human mammary epithelial cells); experiment: CCK-8 cytotoxicity, MCF-10A normal cells; assay type: cell-based
From the text: (§1) A549 (non-small-cell-lung cancer cell line), Caski (human epithelial cervical cancer cell line), HepG2 (human liver carcinoma cell line), MCF-7 (human breast carcinoma cell line), C42B (human prostate cancer line C42B), L-02 (human normal hepatocytes), RWPE-1 (human prostate epithelial cells) and MCF-10A (human normal mammary epithelial cells) were obtained from National Collection of Authenticated Cell Cultures (Shanghai, China). A549/CDDP (A549 cell line resistant to cisplatin), C42B/ENZR (C42b cell line resistant to Enzalutamide), MCF-7/DOX (MCF-7 cell line resistant to doxorubicin), A2780/TAX (human ovarian cancer cell line A2780 resistant to taxol) and HCT-8/VCR (human ileocecum carcinoma cell lines HCT-8 resistant to vincristine) were kindly provided by Professor Junjian Wang and Professor Xingshu Li at Sun Yat-Sen University, China. […]
(§2) After 24 h, the medium containing different concentrations of tested compounds were added for another 48 h. […] The optical density was recorded with a microplate reader at 570 nm (Thermo Scientific, Varioskan LUX). All the experiments were repeated independently at least three times and the IC50 values were calculated […]

[2] = target: tubulin (colchicine binding site) (Sus scrofa, UniProt P02554); experiment: colchicine competitive inhibition (binding) assay
Procedure: Tubulin–microtubule homeostasis is crucial for cell mitosis.
Figure 2 Effect of compound 14b on tubulin. […] The experiments were performed at least three times, and representative images are shown. Scale bars are 10 μm. […] The backbone of tubulin is shown in ribbon representation (α-tubulin, yellow; β-tubulin, green). […] The data were shown as mean ± SE (standard error) of at least three independent experiments.

[3] = test system: C42B (human prostate cancer line); experiment: CCK-8 antiproliferative assay, C42B; assay type: cell-based; conditions: 48 h, read-out: IC50, Mean ± SE, C42B
[4] = test system: A549/CDDP (A549 cell line resistant to cisplatin); experiment: CCK-8 cytotoxicity, A549/CDDP; assay type: cell-based; conditions: Homo sapiens, 48 h, CCK-8, cisplatin-resistant, read-out: IC50, Mean ± SE, A549/CDDP
Procedure: (§3) Besides the high cytotoxicity, drug resistance is the other limiting factor of chemotherapeutics. In this study, the cytotoxicities of compound 14b towards five kinds of drug-resistant cancer cell lines were also evaluated. Except three kinds of cell lines that are resistant to three drugs commonly used in clinical practice, two kinds of cell lines that are resistant to MTAs were also evaluated.
(§4) A549 (non-small-cell-lung cancer cell line), Caski (human epithelial cervical cancer cell line), HepG2 (human liver carcinoma cell line), MCF-7 (human breast carcinoma cell line), C42B (human prostate cancer line C42B), L-02 (human normal hepatocytes), RWPE-1 (human prostate epithelial cells) and MCF-10A (human normal mammary epithelial cells) were obtained from National Collection of Authenticated Cell Cultures (Shanghai, China). […]
as §2

[5] = test system: L-02 (normal human hepatocytes); experiment: CCK-8 cytotoxicity, L-02 normal cells; assay type: cell-based
From the text: as §1, §2

[6] = test system: MCF-7/DOX (MCF-7 cell line resistant to doxorubicin); experiment: CCK-8 cytotoxicity, MCF-7/DOX; assay type: cell-based; conditions: Homo sapiens, MCF7-DOX; 48 h, CCK-8, doxorubicin-resistant; read-out: IC50, Mean ± SE, MCF-7/DOX
Procedure: as §3, §4, §2
The fluorescence intensity enhancement (emission wavelength is 410 nm, excitation wavelength is 340 nm) was recorded every 60 s for 60 min in a multifunction microplate reader (Molecular Devices, Flex Station 3). […]

[7] = test system: Caski (human epithelial cervical cancer cell line); experiment: CCK-8 antiproliferative assay, Caski; assay type: cell-based; conditions: Ca-Ski, 48 h, read-out: IC50, Mean ± SE, Caski

COc1ccc(C(=O)c2ccc3c(ccn3C)c2)c2c1C=CC(C)(C)O2 [compound 14b, (5-methoxy-2,2-dimethyl-2H-chromen-8-yl)(1-methyl-1H-indol-5-yl)methanone] was tested, and the IC50 ([1]; Homo sapiens, MCF-10A, 48 h, CCK-8, normal cells, read-out: IC50, Mean ± SE, MCF-10A) was 6260 ± 311 nM, the “Selectivity Ratio” value ([1]; IC50 MCF-10A / IC50 MCF-7) was 231.7 and the IC50 [2] was 1040 ± 20 nM. For the same compound, the IC50 [3] was 51 ± 5 nM, the IC50 [4] was 35 ± 21 nM and the IC50 ([5]; Homo sapiens, Hepatocyte, 48 h, CCK-8, normal cells, read-out: IC50, Mean ± SE, L-02) was 1260 ± 214 nM. For the same compound, the “Selectivity Ratio” value ([5]; IC50 L-02 / IC50 Hep-G2) was 16.97, the IC50 [6] was 51 ± 24 nM and the IC50 [7] was 37 ± 3 nM.
